How the values were obtained:
human KDR enzyme = biological target: T1, human KDR enzyme (Homo sapiens, UniProt P35968); experiment: KDR substrate phosphorylation assay (scintillation, 96-well plate); type: biochemical
T1 construct: The cytoplasmic domain of the human KDR enzyme was cloned in the form of a GST fusion; GST; made in house; host or cells: SF21 insect cells (baculovirus, pFastBac)
Method: The inhibitory effect of the compounds is determined in an assay of substrate phosphorylation by the KDR enzyme in vitro using a scintillation technique (96-well plate, NEN).
The cytoplasmic domain of the human KDR enzyme was cloned in the form of a GST fusion into the baculovirus expression vector pFastBac. The protein was expressed in SF21 cells and purified to approximately 60% homogeneity.
The KDR kinase activity is measured in 20 mM MOPS, 10 mM MgCl2, 10 mM MnCl2, 1 mM DTT, 2.5 mM EGTA, 10 mM β-glycerophosphate, pH=7.2, in the presence of 10 mM MgCl2, 100 μM Na3VO4, 1 mM NaF. 10 μl of the compound are added to 70 μl of kinase buffer, containing 100 ng of KDR enzyme at 4° C. The reaction is triggered by adding 20 μl of solution containing 2 μg of substrate (SH2-SH3 fragment of PLCγ expressed in the form of a GST fusion protein), 2 μCi γ^33P[ATP] and 2 μM cold ATP. After 1 hour of incubation at 37° C., the reaction is stopped by adding 1 volume (100 μl) of 200 mM EDTA. The incubation buffer is withdrawn and the wells are washed three times with 300 μl of PBS. The radioactivity is measured in each well using a Top Count NXT radioactivity counter (Packard).
The background noise is determined by measuring the radioactivity in four different wells containing the radioactive ATP and the substrate alone.
A control for total activity is measured in four different wells containing all of the reagents (γ^33P-[ATP], KDR and PLCγ substrate), but in the absence of compound.
The inhibition of KDR activity with the compound of the invention is expressed in percentage inhibition of the control activity determined in the absence of compound.
The compound SU5614 (Calbiochem) (1 μM) is included in each plate as an inhibition control.

Aurora2 = biological target: T2, Aurora2 (Homo sapiens, UniProt O14965); experiment: Aurora2 enzyme assay, NuMA substrate phosphorylation (Flashplate); type: biochemical; conditions: read-out: IC 50 Aurora2
T2 construct: Aurora 2: whole recombinant protein comprising an N-terminal histidine tail; His tag (histidine tail) (N); made in house; host or cells: E. coli
T2 sequence (O14965 1-403): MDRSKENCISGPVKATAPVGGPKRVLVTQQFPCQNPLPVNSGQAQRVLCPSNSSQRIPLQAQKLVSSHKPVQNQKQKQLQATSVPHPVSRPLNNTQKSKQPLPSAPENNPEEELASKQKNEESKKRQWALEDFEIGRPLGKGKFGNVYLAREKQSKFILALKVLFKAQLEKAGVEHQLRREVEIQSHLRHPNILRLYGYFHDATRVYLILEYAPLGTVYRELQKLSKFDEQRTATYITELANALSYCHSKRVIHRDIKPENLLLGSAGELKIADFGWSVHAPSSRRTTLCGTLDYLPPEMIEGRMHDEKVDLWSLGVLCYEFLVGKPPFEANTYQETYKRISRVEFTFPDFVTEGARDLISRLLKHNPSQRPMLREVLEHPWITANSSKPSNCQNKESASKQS
Method: The inhibitory effect of compounds with respect to the kinases Aurora1 and Aurora2 is determined by an enzyme assay employing radioactivity detection.
The kinase activity of Aurora 1 and Aurora 2 is evaluated by the phosphorylation of the substrate Numa-histidine in the presence of radiolabeled ATP ([^33P]ATP), using 96-well Flashplate plates in which nickel chelate is fixed to the surface of the microplate. The amount of ^33P phosphate incorporated in the NuMA substrate is proportional to the activity of the enzyme Aurora1 or Aurora2.
The proteins are produced in the protein production laboratory of the SanofiAventis group.
Aurora 2: whole recombinant protein comprising an N-terminal histidine tail, expressed in E. coli and purified to more than 82%.
NuMA (nuclear protein that associates with the mitotic apparatus) fragment of 424 amino acids, expressed in E. coli, whose N-terminal end has been labeled with histidine and used as a substrate for the two Aurora enzymes.
The microplates used are 96-well Flash-Plate plates with nickel chelate (Perkin Elmer, model SMP107).
The products for evaluation are incubated in a reaction volume of 100 μL per well in the presence of 10 nM of Aurora 1 or Aurora 2, 500 nM of NuMA substrate in a buffer composed of 50 mM of Tris/HCl (pH 7.5), 50 mM NaCl, 5 mM MgCl2 (Aurora-B) or 10 mM MgCl2 (Aurora-A) and 1 mM of DTT, at 37° C.
In each well, 80 μL of the enzyme/substrate incubation buffer are distributed, followed by 10 μL of the product to be evaluated, in variable concentrations. The reaction is initiated by adding 1 μM of final ATP containing 0.2 μCi of [^33P]ATP (10 μL). After 30 minutes of incubation, the reaction is terminated by simply removing the reaction buffer and each well is washed twice with 300 μl of the Tris/HCl buffer. The radioactivity is then measured in each well by means of a scintillation apparatus, Packard, Top count model.
The control enzyme activity of Aurora is expressed by the number of counts per minute obtained within 30 minutes, after deduction of the background noise (reaction mixture not containing the enzyme). The evaluation of the various test products is expressed in percentage inhibition of the Aurora activity relative to the control.

human Tie2 = biological target: T3, human Tie2 (Homo sapiens, UniProt Q02763); experiment: Tie2 assay of PLC phosphorylation (FlashPlate); type: biochemical; conditions: read-out: IC 50 TIE2
T3 construct: amino acids of the intracellular domain 776-1124; made in house
T3 sequence (Q02763 776-1124): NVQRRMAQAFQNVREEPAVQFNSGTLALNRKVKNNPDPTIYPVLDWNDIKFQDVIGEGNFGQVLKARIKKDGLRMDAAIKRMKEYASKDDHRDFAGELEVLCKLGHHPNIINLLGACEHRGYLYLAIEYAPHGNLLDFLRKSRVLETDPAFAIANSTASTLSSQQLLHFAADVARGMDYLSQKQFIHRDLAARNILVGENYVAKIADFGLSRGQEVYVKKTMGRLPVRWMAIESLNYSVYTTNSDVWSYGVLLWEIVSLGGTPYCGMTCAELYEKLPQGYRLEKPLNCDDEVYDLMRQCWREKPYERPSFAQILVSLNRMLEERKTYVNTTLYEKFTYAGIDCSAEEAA
Method: The coding sequence of human Tie2, corresponding to the amino acids of the intracellular domain 776-1124, was generated by PCR, using the cDNA isolated from human placenta as a model. This sequence was introduced into a baculovirus expression vector pFastBacGT in the form of a GST fusion protein.
The inhibitory effect of the molecules is determined in an assay of PLC phosphorylation by Tie2 in the presence of GST-Tie2 purified to approximately 80% homogeneity. The substrate is composed of the SH2-SH3 fragments of PLC expressed in the form of a GST fusion protein.
The kinase activity of Tie2 is measured in a 20 mM MOPS buffer, pH 7.2, containing 10 mM MgCl2, 10 mM MnCl2, 1 mM DTT, 10 mM of glycerol-phosphate. In a 96-well FlashPlate plate, kept on ice, a reaction mixture is deposited which is composed of 70 μl of kinase buffer containing 100 ng of GST-Tie2 enzyme per well. Subsequently 10 μl of the test molecule diluted to a concentration of 10% maximum in DMvSO are added. For a given concentration, each measurement is carried out in quadruplicate. The reaction is initiated by adding 20 μl of solution containing 2 μg of GST-PLC, 2 μM of cold ATP and 1 μCi of ^33P[ATP]. After 1 hour of incubation at 37° C., the reaction is terminated by adding 1 volume (100 μl) of 200 mM EDTA. Following removal of the incubation buffer, the wells are washed three times with 300 μl of PBS. The radioactivity is measured on a Wallac MicroBeta 1450.
The inhibition of Tie2 activity is calculated and expressed as a percentage inhibition relative to the control activity determined in the absence of compound.

T1 sequence (P35968 786-1356 limits assumed): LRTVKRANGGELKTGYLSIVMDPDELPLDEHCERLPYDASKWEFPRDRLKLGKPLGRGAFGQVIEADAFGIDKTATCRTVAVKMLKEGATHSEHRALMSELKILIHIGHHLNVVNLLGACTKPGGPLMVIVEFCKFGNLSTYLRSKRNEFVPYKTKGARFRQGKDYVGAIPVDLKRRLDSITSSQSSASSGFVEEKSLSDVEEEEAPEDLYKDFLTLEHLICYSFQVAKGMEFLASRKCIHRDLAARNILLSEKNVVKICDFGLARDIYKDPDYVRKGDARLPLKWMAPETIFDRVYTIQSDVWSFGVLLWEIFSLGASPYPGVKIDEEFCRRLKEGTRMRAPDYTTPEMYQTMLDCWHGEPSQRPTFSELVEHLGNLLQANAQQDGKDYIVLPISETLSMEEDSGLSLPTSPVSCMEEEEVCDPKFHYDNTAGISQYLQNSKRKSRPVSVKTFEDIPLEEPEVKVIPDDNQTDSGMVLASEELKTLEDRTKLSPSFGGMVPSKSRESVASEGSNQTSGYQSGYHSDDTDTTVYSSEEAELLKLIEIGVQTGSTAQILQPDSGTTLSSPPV

| IC50 (human KDR enzyme) | melting point | IC50 (Aurora2) | IC50 (human Tie2) | SMILES |
| --- | --- | --- | --- | --- |
| 29 nM | 152 to 153 °C | 60 nM | 8 nM | O=C(Nc1ccc(-c2ccc3c(NC(=O)c4ccco4)n[nH]c3c2F)cc1)Nc1cc(C(F)(F)F)ccc1F [Example 17, 1-(4-{7-Fluoro-3-[(furan-2-yl)carbonylamino]-1H-indazol-6-yl}phenyl)-3-(2-fluoro-5-trifluoromethylphenyl)urea] |
| 77 nM | 206 to 207 °C | 346 nM | 26 nM | O=C(Nc1ccc(-c2ccc3c(NC(=O)c4ccccc4)n[nH]c3c2F)cc1)Nc1cc(C(F)(F)F)ccc1F [Example 18, 1-(4-{7-Fluoro-3-[phenylcarbonylamino]-1H-indazol-6-yl}phenyl)-3-(2-fluoro-5-trifluoromethylphenyl)urea] |
